Patent US5624923A, “Tricyclic diazepine vasopressin antagonists and oxytocin antagonists” (priority 1995, dated 1997)
One block for each molecule: values may come before it.

Columns and labels:
[1] = test system: Vasopressin V2; test: Vasopressin V2 Antagonist Activity in Conscious Hydrated Rats; type: in vivo, rat; conditions: 10 mg/kg orally, AVP 0.4 μg/kg i.p.
Outline: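 Four-hour urine output, osmolality and electrolytes (Na+, K+, Cl−) recorded in water-loaded rats (30 mL/kg deionized water orally) given AVP i.p. at 0.4 μg/kg. Test compounds were given orally at 0.1–100 mg/kg 1 h before AVP; 2–4 rats per compound.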

[2] = target: T1, Rat Hepatic V1 Receptors (Rattus norvegicus, UniProt P30560); test: Binding Assay to Rat Hepatic V1 Receptors; conditions: for IC50: rat liver membranes, read-out: V1 IC50; for inhibition at 10 µM: 2 h, rat
T1 construct: Rat liver plasma membranes expressing the vasopressin V1 receptor subtypes; from tissue; host or cells: rat liver plasma membranes
T1 sequence (P30560 whole entry): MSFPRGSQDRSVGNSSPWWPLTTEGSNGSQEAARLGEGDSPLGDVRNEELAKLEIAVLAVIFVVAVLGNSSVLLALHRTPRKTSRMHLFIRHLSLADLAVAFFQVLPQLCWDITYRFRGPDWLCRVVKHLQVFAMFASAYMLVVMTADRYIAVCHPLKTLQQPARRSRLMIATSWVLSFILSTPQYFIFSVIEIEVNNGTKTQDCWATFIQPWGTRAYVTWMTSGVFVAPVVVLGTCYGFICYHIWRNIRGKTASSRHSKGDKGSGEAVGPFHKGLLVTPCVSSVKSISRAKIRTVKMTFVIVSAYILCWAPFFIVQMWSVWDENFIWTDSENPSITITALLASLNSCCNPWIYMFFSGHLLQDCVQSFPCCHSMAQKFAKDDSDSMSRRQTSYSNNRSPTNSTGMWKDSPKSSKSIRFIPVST

[3] = target: T2, Human V2 Vasopressin Receptor (Homo sapiens, UniProt P30518); test: Binding to Membranes of Mouse Fibroblast Cell Line (LV-2) Transfected with the cDNA Expressing the Human V2 Vasopressin Receptor; conditions: LV-2 cell membranes, human V2; read-out: V2 IC50 (**)
T2 construct: expressed in transfected cells; host or cells: mouse fibroblast cell line LV-2
T2 sequence (P30518 whole entry): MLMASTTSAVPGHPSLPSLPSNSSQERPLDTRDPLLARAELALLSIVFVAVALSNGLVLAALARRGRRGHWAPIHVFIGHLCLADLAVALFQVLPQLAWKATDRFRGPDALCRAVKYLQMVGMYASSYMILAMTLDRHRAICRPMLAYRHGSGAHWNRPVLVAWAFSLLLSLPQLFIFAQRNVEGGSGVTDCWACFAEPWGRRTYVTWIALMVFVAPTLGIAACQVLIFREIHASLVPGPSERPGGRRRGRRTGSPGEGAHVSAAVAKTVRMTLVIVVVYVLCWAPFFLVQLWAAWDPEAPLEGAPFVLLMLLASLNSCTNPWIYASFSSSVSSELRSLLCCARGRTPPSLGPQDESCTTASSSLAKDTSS

Compound: O=C(Nc1ccc(C(=O)N2Cc3ccnn3Cc3ccccc32)cc1)c1ccc(Cl)cc1Cl [Example 217, N-[4-(4H-Pyrazolo[5,1-c][1,4]benzo-diazepin-5(10H)-ylcarbonyl)phenyl]-2,4-dichlorobenzamide]
Osmolality [1]: 466 mOsm/kg
Urine Volume [1]: 14.3 ml/4 hrs
IC50 [2]: 68 nM
IC50 [3]: 10 nM

Compound: O=C(Nc1ccc(C(=O)N2Cc3cccn3Cc3sccc32)cc1)c1ccc(Cl)cc1Cl [Example 274, N-(4-(5H-pyrrolo[1,2-a]thieno-[3,2-e][1,4]diazepin-4(10H)-ylcarbonyl)phenyl]-2,4-dichloro-benzamide]
Osmolality [1]: 1177 mOsm/kg
Urine Volume [1]: 3 ml/4 hrs
IC50 [3]: 31 nM

Compound: COc1cc(C(=O)N2Cc3cccn3Cc3ccccc32)ccc1NC(=O)c1ccccc1C [Example 477, N-[4-(5H-pyrrolo[2,1-c][1,4]benzodiazepin-10(11H)-ylcarbonyl)-2-methoxy-phenyl]-2-methylbenzamide]
Osmolality [1]: 701 mOsm/kg
Urine Volume [1]: 5.3 ml/4 hrs
IC50 [3]: 3.2 nM

Compound: COc1cc(C(=O)N2Cc3cccn3Cc3ccccc32)ccc1NC(=O)c1ccc(Cl)cc1Cl [Example 478, N-[4-(5H-pyrrolo[2,1-c][1,4]benzodiazepin-10(11H)-ylcarbonyl)-2-methoxy-phenyl]-2,4-dichlorobenzamide]
Osmolality [1]: 1399 mOsm/kg
Urine Volume [1]: 3 ml/4 hrs
IC50 [3]: 1.9 nM

Compound: O=C(Nc1ccc(C(=O)N2Cc3cccn3Cc3ccccc32)cc1)c1cc([N+](=O)[O-])ccc1Cl [Example 480, N-[4-(5H-pyrrolo[2,1-c][1,4]benzodiazepin-10(11H)-ylcarbonyl)phenyl]-2-chloro-5-nitrobenzamide]
Osmolality [1]: 827 mOsm/kg
Urine Volume [1]: 8.8 ml/4 hrs
IC50 [3]: 26 nM

Compound: Cc1cccc(C(=O)Nc2ccc(C(=O)N3Cc4cccn4Cc4ccccc43)c(Cl)c2)c1C [Example 525, N-[4-(5H-pyrrolo[2,1-c][1,4]benzodiazepin-10(11H)-ylcarbonyl]-3-chlorophenyl]-2,3-dimethylbenzamide]
Osmolality [1]: 557 mOsm/kg
Urine Volume [1]: 13 ml/4 hrs
IC50 [3]: 0.42 nM

Now from value to molecule, other results behind:

IC50 [3]: 0.67 nM
Compound: O=C(Nc1ccc(C(=O)N2Cc3cccn3Cc3ccccc32)c(Cl)c1)c1ccc(F)cc1Cl [Example 527, N-[4-(5H-pyrrolo[2,1-c][1,4]benzodiazepin-10(11H)-ylcarbonyl]-3-chlorophenyl]-4-fluoro-2-chlorobenzamide]
Osmolality [1]: 430 mOsm/kg
Urine Volume [1]: 19.5 ml/4 hrs

IC50 [3]: 6 nM
Compound: O=C(Nc1ccc(C(=O)N2Cc3cccn3Cc3ccccc32)c(Cl)c1)c1ccccc1C(F)(F)F [Example 528, N-[4-(5H-pyrrolo[2,1-c][1,4]benzodiazepin-10(11H)-ylcarbonyl]-3-chlorophenyl]-2-(trifluoromethyl)benzamide]
Osmolality [1]: 647 mOsm/kg
Urine Volume [1]: 11.3 ml/4 hrs

inhibition at 10 µM [2]: 78%
Compound: O=C(Nc1ccc(C(=O)N2Cc3ccc(C(=O)C(F)(F)F)n3Cc3ccccc32)cc1)c1ccccc1C(F)(F)F [Example 594]
Osmolality [1]: 1172 ± 182 mOsm/kg
Urine Volume [1]: 4.9 ± 1.2 ml/4 hrs

inhibition at 10 µM [2]: 57%
Compound: Cc1ccccc1C(=O)Nc1ccc(C(=O)N2Cc3ccc(C(=O)C(F)(F)F)n3Cc3ccccc32)c(Cl)c1 [Example 595, N-[4-[[3-(Trifluoroacetyl)-5H-pyrrolo[2,1-c][1,4]benzodiazepin-10(11H)-yl]carbonyl]-3-chlorophenyl]-2-methylbenzamide]
Osmolality [1]: 1474 mOsm/kg
Urine Volume [1]: 8.3 ml/4 hrs

IC50 [2]: 46 nM
Compound: O=C(Nc1ccc(C(=O)N2Cc3cccn3Cc3ccccc32)cc1)c1cc(Cl)cc(Cl)c1Cl [Example 599, N-[4-(5H-Pyrrolo[2,1-c][1,4]benzodiazepin-10(11H)-ylcarbonyl)phenyl]-2,3,5-trichlorobenzamide]
Osmolality [1]: 407 mOsm/kg
Urine Volume [1]: 18 ml/4 hrs
